In patent publication US20240287089A1, “Preparation and Uses of 7-Azaindenoisoquinolines” (Purdue Research Foundation, priority 0001, published 2024):

How the values were obtained:
[1] = Stability in blood plasma; details: human plasma, 37° C.
Procedure: (§3) Analysis of Plasma Protein Binding and Stability in Human and Mouse Blood Plasma by Equilibrium Dialysis. Frozen plasma (stored at −80° C.) was thawed immediately in a 37° C. water bath. The working solutions of test compound and control compound were prepared in DMSO at 200 μM concentration, and the working solutions were spiked into plasma. The final concentration of compound was 1 μM. The final concentration of DMSO was 0.5%. Ketoconazole was used as positive control in the assay. The dialysis membranes were soaked in ultrapure water for 60 min to separate strips, then in 20% ethanol for 20 min, and then finally in dialysis buffer for 20 min. For equilibrium dialysis, each cell contained plasma sample (150 μL) and was dialyzed against an equal volume of dialysis buffer (PBS). The assay was performed in duplicate. The dialysis plate was sealed and incubated at 37° C. with 5% CO2 at 100 rpm for 6 h. At the end of incubation, samples (50 μL) from both buffer and plasma chambers were transferred to wells of a 96-well plate. Plasma (50 μL) was added to each buffer sample and an equal volume of PBS was added to the collected plasma sample. Cold acetonitrile (400 μL) containing internal standards (IS, 100 nM alprazolam, 200 nM labetalol, 200 nM imipramine and 2 μM ketoprofen) was added to precipitate protein and release compounds. Samples were vortexed for 2 min and centrifuged for 30 min at 3,220 g. An aliquot (100 μL) of the supernatant was diluted with ultra-pure H2O (100 μL), and the mixture was used for LC-MS/MS analysis. For stability determination in plasma, a spiked plasma sample (50 μL) was transferred to a new plate and incubated at 37° C., 5% CO2 for 0 and 6 h. At designated time points, PBS (50 μL) was added and mixed thoroughly, followed by the addition of room temperature quench solution [400 μL of acetonitrile containing internal standards (IS, 100 nM alprazolam, 200 nM labetalol, 200 nM imipramine and 2 μM ketoprofen)] to precipitate protein and release compounds. Samples were vortexed for 2 min and centrifuged for 30 min at 3,220 g. An aliquot (400 μL) of the supernatant was diluted by ultra-pure H2O, and the mixture was used for LC-MS/MS analysis. The concentrations of test compounds in the buffer and plasma chambers were determined from peak area ratios.

[2] = Stability in blood plasma; details: mouse plasma, 37° C.
Procedure: Analysis of Plasma Protein Binding and Stability in Human and Mouse Blood Plasma by Equilibrium Dialysis. Frozen plasma (stored at −80° C.) was thawed immediately in a 37° C. water bath. The working solutions of test compound and control compound were prepared in DMSO at 200 μM concentration, and the working solutions were spiked into plasma. The final concentration of compound was 1 μM. The final concentration of DMSO was 0.5%. Ketoconazole was used as positive control in the assay. The dialysis membranes were soaked in ultrapure water for 60 min to separate strips, then in 20% ethanol for 20 min, and then finally in dialysis buffer for 20 min. For equilibrium dialysis, each cell contained plasma sample (150 μL) and was dialyzed against an equal volume of dialysis buffer (PBS). The assay was performed in duplicate. The dialysis plate was sealed and incubated at 37° C. with 5% CO2 at 100 rpm for 6 h. At the end of incubation, samples (50 μL) from both buffer and plasma chambers were transferred to wells of a 96-well plate. Plasma (50 μL) was added to each buffer sample and an equal volume of PBS was added to the collected plasma sample. […] The concentrations of test compounds in the buffer and plasma chambers were determined from peak area ratios.

[3] = Plasma protein binding by equilibrium dialysis; details: human plasma
Procedure: as §3

[4] = Plasma protein binding by equilibrium dialysis; details: mouse plasma
Procedure: as §3

[5] = biological target: 3′-TAMRA-labeled MycG4 DNA; experiment: Fluorescence binding assay; details: 20° C., 100 mM K+ buffer, pH 7.0; read-out: Apparent Binding Affinity Kd, app
RAJI lymphoma cells = experiment: MTS cell viability IC50 assay; assay type: cell-based; details: 72 h
Procedure: Cytotoxicity Results in Raji Non-Hodgkin's Lymphoma Cells. MTS experiments were then conducted to test the anti-proliferative effects of 7-aza-8,9-methylenedioxyindenoisoquinolines in Raji cells. Cells were incubated at 2-2000 nM of each drug for 72 h, and cell viabilities were quantified using the MTS assay. […] This potency trend generally correlated with the western blot results, in which G106 and G108 […] show weaker Myc downregulation.
(§1) MTS Cell Viability IC50 Assay. Drug solutions for MTS IC50 assays of suspension cell lines were made from DMSO stocks by serial-dilutions in 1×PBS (10010-031, Gibco). To set up treatments, drug solutions were plated in triplicates to 96-well tissue culture plates, to which cell-containing media was added to a total volume of 100 μL/well. 100%-viability controls were untreated cells. 2000 cells/well were plated for all suspension cell lines except 3000 cells/well for KMS-27 and 10000 cells/well for CHLA-32. Blanks were cell-free media. Drug treatments were maintained for 72 hr at 37° C. with 5% CO2. To quantify cells, CellTiter 96 AQueous MTS Reagent Powder (G1111, Promega) was dissolved and mixed with phenazine methosulfate (PMS, Sigma-Aldrich P9625) according to manufacturer's instructions. MTS/PMS mix ([…]) was added to treatment wells, 100%-viability control wells, and blank wells. Colors were developed at 37° C. with 5% CO2 for 4 h and absorbance at 490 nm was measured by BioTek Synergy 4 system. To obtain %-viability, A490 values were corrected by blank subtraction, normalized to 100%-viability control, and averaged. Average %-viabilities were plotted against drug dosages to obtain dose-response curves. […] For adherent cell lines, the MTS IC50 assays were conducted the same way as for suspension cell lines except for cell plating and drug treatment. For cell plating, 50 μL of 2000 cells were plated in triplicates to a 96-well tissue culture plate. Cells were allowed sufficient time to become adherent. Serial-diluted drug solutions were made the same way as in the MTS IC50 assays. To set up treatments, drug solutions were mixed with media to two-fold of the final concentrations, and 50 μL of such drug-media mix was then added to 50 μL of plated cells.

AMO-1 = experiment: MTS GI50, Myc-dependent panel; assay type: cell-based; details: Homo sapiens, AMO1; AMO-1, 72 h; read-out: GI50
Procedure: (§2) Cytotoxicity Results in Myc-dependent Cancer Cell Lines.
as §1

ARD = experiment: MTS GI50, Myc-dependent panel; assay type: cell-based; details: ARD, 72 h; read-out: GI50
Procedure: as §2, §1

CCRF-CRM = experiment: MTS GI50, Myc-dependent panel; assay type: cell-based; details: CCRF-CRM, 72 h; read-out: GI50
Procedure: as §2, §1

CHLA-32 = experiment: MTS GI50, Myc-dependent panel; assay type: cell-based; details: CHLA-32, 72 h; read-out: GI50
Procedure: as §2, §1

CHLA-99 = experiment: MTS GI50, Myc-dependent panel; assay type: cell-based; details: CHLA-99, 72 h; read-out: GI50
Procedure: as §2, §1

HL-60 = experiment: MTS GI50, Myc-dependent panel; assay type: cell-based; details: Homo sapiens, HL-60, 72 h; read-out: GI50
Procedure: as §2, §1

K-562 = experiment: MTS GI50, Myc-dependent panel; assay type: cell-based; details: Homo sapiens, K562; K-562, 72 h; read-out: GI50
Procedure: as §2, §1

KMS-27 = experiment: MTS GI50, Myc-dependent panel; assay type: cell-based; details: KMS-27, 72 h; read-out: GI50
Procedure: as §2, §1

Kasumi-1 = experiment: MTS GI50, Myc-dependent panel; assay type: cell-based; details: Homo sapiens; Kasumi-1, 72 h; read-out: GI50
Procedure: as §2, §1

L-363 = experiment: MTS GI50, Myc-dependent panel; assay type: cell-based; details: Homo sapiens, L-363, 72 h; read-out: GI50
Procedure: as §2, §1

MCF-7 = experiment: MTS GI50, Myc-dependent panel; assay type: cell-based; details: Homo sapiens, MCF7; MCF-7, 72 h; read-out: GI50
Procedure: as §2, §1

MDA-MB-231 = experiment: MTS GI50, Myc-dependent panel; assay type: cell-based; details: Homo sapiens, MDA-MB-231, 72 h; read-out: GI50
Procedure: as §2, §1

MOLT-4 = experiment: MTS GI50, Myc-dependent panel; assay type: cell-based; details: Homo sapiens, MOLT-4, 72 h; read-out: GI50
Procedure: as §2, §1

RD-ES = experiment: MTS GI50, Myc-dependent panel; assay type: cell-based; details: 72 h, read-out: GI50
Procedure: as §2, §1

RPMI-8226 = experiment: MTS GI50, Myc-dependent panel; assay type: cell-based; details: Homo sapiens, RPMI-8226, 72 h; read-out: GI50
Procedure: as §2, §1

RS4;11 = experiment: MTS GI50, Myc-dependent panel; assay type: cell-based; details: Homo sapiens; RS4;11, 72 h; read-out: GI50
Procedure: as §2, §1

SK-N-MC = experiment: MTS GI50, Myc-dependent panel; assay type: cell-based; details: Homo sapiens, 72 h, read-out: GI50
Procedure: as §2, §1

TC-106 = experiment: MTS GI50, Myc-dependent panel; assay type: cell-based; details: TC-106, 72 h; read-out: GI50
Procedure: as §2, §1

TC-32 = experiment: MTS GI50, Myc-dependent panel; assay type: cell-based; details: Homo sapiens, TC-32, 72 h; read-out: GI50
Procedure: as §2, §1

TC-71 = experiment: MTS GI50, Myc-dependent panel; assay type: cell-based; details: TC-71, 72 h; read-out: GI50
Procedure: as §2, §1

THP-1 = experiment: MTS GI50, Myc-dependent panel; assay type: cell-based; details: Homo sapiens, THP-1, 72 h; read-out: GI50
Procedure: as §2, §1

[6] = test system: Myc protein in MCF-7 breast cancer cells; experiment: Western blot of Myc protein level; assay type: cell-based; details: MCF-7, 0.5, 1.0, 2.0 μM, 24 h
Procedure: Western blot. G-quadruplex formed in the MYC promoter functions as a transcriptional silencer. To determine the effects of 7-aza-8,9-methylenedioxyindenosioquinolines on the MYC protein level, a western blotting experiment was carried out using MCF-7 breast cancer cells. Western blot experiments were conducted to examine the downregulation effects of 7-aza-8,9-methylenedioxyindenosioquinolines on Myc protein level (FIG. 5). MCF-7 breast cancer cells were incubated for 24 h at 0, 0.5, 1.0, and 2.0 μM of G-101-108.
Western Blotting. MCF-7 cells were grown and treated in 6-well tissue culture plates. After collection, cells were suspended in 140 μL lysis buffer containing 1× RIPA buffer, 1× Protease Inhibitor Cocktail (A32965, Thermo Scientific), 1× NuPAGE LDS Sample Buffer (NP0007, Invitrogen), and 1× Sample Reducing Agent (NP0009, Invitrogen). The cell lysates were heated to 75° C. for 10 min. After sonication, 8 μL of each sample was loaded on a 4-15% Mini-PROTEAN TGX gel (4561086, Bio-Rad). […] Myc and GAPDH were detected with 1:1000-diluted monoclonal anti-Myc antibody (5605S, Cell Signaling Technology) and 1:2000-diluted monoclonal anti-GAPDH antibody (5174S, Cell Signaling Technology), respectively. Primary antibodies were detected by anti-Rabbit IgG HRP-linked antibody (7074S, Cell Signaling Technology). […]

human Topo1 = human Topo1 (Homo sapiens (Human), UniProt P11387); experiment: Topo1-mediated DNA cleavage assay; assay type: biochemical; details: 10 μM
Procedure: 7-Aza-8,9-methylenedioxyindenoisoquinoline compounds were examined for inhibitory effects on Topol-mediated DNA relaxation (FIG. 11A), and for Topol poison effect using Topol-Mediated DNA Cleavage Assay (FIG. 11B).
Topol-Mediated DNA Cleavage Assay. Human Topoisomerase I Assay Kit (TG1015-1A) from Topogen was used to examine the compounds for Topol poison effect. Assay was performed according to manufacturer's instructions. CPT at 10 μM was used as a positive control. […] Assay samples were incubated at 37° C. for 30 min followed by reaction termination with 10% SDS. This was followed by a 15 min Proteinase K digestion for 15 min at 37° C. to degrade Topo1 and a 1:1 volume chloroform:isoamyl alcohol DNA extraction. Samples were electrophoresed on a 1% agarose gel in TBE buffer for 2 h at 46 v. Both the agarose gel and buffer contained 0.5 μg/ml of ethidium bromide.

Chain of human Topo1 (P11387 whole entry): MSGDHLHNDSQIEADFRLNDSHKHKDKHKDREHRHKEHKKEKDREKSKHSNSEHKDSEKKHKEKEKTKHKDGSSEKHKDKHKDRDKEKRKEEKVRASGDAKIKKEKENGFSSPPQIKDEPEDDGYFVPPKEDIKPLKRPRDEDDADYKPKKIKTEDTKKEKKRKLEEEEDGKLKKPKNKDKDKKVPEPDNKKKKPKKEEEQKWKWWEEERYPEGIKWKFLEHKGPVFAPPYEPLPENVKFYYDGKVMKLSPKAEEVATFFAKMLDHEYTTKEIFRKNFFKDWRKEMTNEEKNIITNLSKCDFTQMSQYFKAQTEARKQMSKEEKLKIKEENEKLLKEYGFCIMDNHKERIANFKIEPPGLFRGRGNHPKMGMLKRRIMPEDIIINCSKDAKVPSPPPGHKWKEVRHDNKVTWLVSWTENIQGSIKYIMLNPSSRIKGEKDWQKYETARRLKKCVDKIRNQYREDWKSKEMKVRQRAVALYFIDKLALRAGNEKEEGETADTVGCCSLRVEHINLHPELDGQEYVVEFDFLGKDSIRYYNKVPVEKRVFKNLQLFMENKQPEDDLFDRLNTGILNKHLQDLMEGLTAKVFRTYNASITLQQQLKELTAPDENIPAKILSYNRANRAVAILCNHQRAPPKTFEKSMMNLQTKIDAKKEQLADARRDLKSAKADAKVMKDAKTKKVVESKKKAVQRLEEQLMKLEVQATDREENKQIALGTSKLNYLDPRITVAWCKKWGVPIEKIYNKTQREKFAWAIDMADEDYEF

With CC(=O)N1CCN(c2ccc(OCC3COC(Cn4ccnc4)(c4ccc(Cl)cc4Cl)O3)cc2)CC1 (centres unmarked) [Ketoconazole] the “% Stability at 6 hrs” value [1] was 104.96%, the “% Stability at 6 hrs” value [2] was 88.82% and the “% Recovery” value [3] was 107.45%. The “% Bound” value ([3]; 1 μM, 6 h dialysis) was 98.01%, the “% Recovery” value [4] was 93.23% and the “% Bound” value ([4]; 1 μM, 6 h dialysis) was 99.26%.

With COc1cc2c3c(n(CCCn4ccnc4)c(=O)c2cc1OC)-c1cc2c(cc1C3=O)OCO2 [LMP776, indimitecan] the Kd [5] was 69 nM, the IC50 (RAJI lymphoma cells; Homo sapiens, Raji) was 92 nM and the GI50 (AMO-1) was 191 nM. It also gave a GI50 (ARD) of 33 nM, a GI50 (CCRF-CRM) of 70 nM and a GI50 (CHLA-32) of 93 nM. The GI50 (CHLA-99) was 276 nM, the GI50 (HL-60) was 894 nM and the GI50 (K-562) was 341 nM. For the same molecule, the GI50 (KMS-27) was 127 nM, the GI50 (Kasumi-1) was 533 nM and the GI50 (L-363) was 53 nM. For the same molecule, the GI50 (MCF-7) was > 2000 nM, the GI50 (MDA-MB-231) was 329 nM and the GI50 (MOLT-4) was 42 nM. The GI50 (RD-ES) was 227 nM, the GI50 (RPMI-8226) was 139 nM and the GI50 (RS4;11) was 59 nM. It also gave a GI50 (SK-N-MC) of 225 nM, a GI50 (TC-106) of 250 nM and a GI50 (TC-32) of 179 nM. For the same molecule, the GI50 (TC-71) was 232 nM and the GI50 (THP-1) was 273 nM.

In the case of COc1cc2c3c(n(CCCN4CCCC4)c(=O)c2cc1OC)-c1nc2c(cc1C3=O)OCO2 [G108, 2,3-Dimethoxy-6-(3-(pyrrolidin-1-yl)propyl)-5H-[1,3]dioxolo[4″,5″:5′,6′]pyrido[3′,2′:4,5]cyclopenta[1,2-c]isoquinoline-5,12(6H)-dione], the “Myc protein level (Western blot)” value [6] is reported as “weak Myc downregulation”, the IC50 (RAJI lymphoma cells; RAJI) is reported as 1710 nM and the “inhibition of DNA relegation (Top1 poison effect)” value (human Topo1) is reported as “minimal effects on DNA relegation”.
